Values of other authors, collected in paper PMC9811213, “Glutamine deamidation does not increase the immunogenicity of C-peptide in people with type 1 diabetes” (Journal of Translational Autoimmunity, 2022).

How the values were obtained:
HLA-DQ8trans = conditions: cited from earlier work
From the text: (§1) Beta cells are believed to be particularly susceptible to endoplasmic reticulum (ER) stress. […] Van Lummel et al. tested an array of candidate epitopes derived from beta cell antigens.

HLA-DQ8 = conditions: cited from earlier work
From the text: as §1

[1] = system: PBMC from subjects with recent onset T1D; conditions: samples from subjects with recent onset T1D; cited from earlier work
From the text: as §1

Q: What does the source list for “EAEDLEVGEVELG [deamidated PI33-45, deamidated PI33-45 (…) tested by van Lummel et al]”?
A: Binding to HLA-DQ8trans compared with the native sequence (EAEDLQVGQVELG) (HLA-DQ8trans): bound more strongly; Binding to HLA-DQ8 compared with the native sequence (EAEDLQVGQVELG) (HLA-DQ8): bound more strongly

Q: With “TRREAEDLEVGEVE [deamidated B-chain-C-peptide, deamidated B-chain-C-peptide PI30-43 (…) tested by van Lummel et al]” as the sequence, how does the “Frequency of peripheral blood responses compared with native PI30-43 peptide (TRREAEDLQVGQVE)” value [1] read?
A: Its value is “more frequently detected”.
